Measurements taken from US7524851B2 (Robert Bosch Gesellschaft fur Medizinische Forschung (RBMF), priority 2003, dated 2009).

Experiments:
CD45RA T cells = experiment: Annexin V/propidium iodide FACS apoptosis of stimulated CD45RA T cells; type: cell-based, human; conditions: rIL-2, anti-CD3 plus anti-CD28; after 5 days
Description: (§1) Isolation of primary CD4^+ T lymphocytes and lamina propria cells: Human peripheral blood mononuclear cells (PBMCs) from healthy volunteers (25-42 years of age) and patients with Crohn's disease (31-65 years of age) were isolated using Ficoll-Hypaque gradients. PBMCs were further purified using CD4 monoclonal antibodies attached to immunomagnetic beads according to the manufacturer's protocol, followed by treatment with Detachabead (Dynal; Oslo, Norway). In some cases, CD4^+ T cells were further separated by negative selection techniques using CD45RO or CD45RA monoclonal antibodies (PharMingen; Heidelberg, Germany) and immunomagnetic beads (Dynal). […]
(§2) For FACS analysis, apoptotic cells were detected by staining with annexin V and propidium iodide using the Annexin V FITC Apoptosis Detection Kit I (PharMingen) (Atreya et al., Nat. Med. 6:583-588 (2000)). […] To verify the results obtained with the annexin V/propidium iodide staining, analysis of T cells displaying DNA fragmentation was also determined by the Nicoletti technique, as described in (Nicoletti et al., J. Immunol. Methods 139:271-279 (1991)). […] Finally, cells were analyzed on a FACScan flow cytometer. […]

CD45RO memory T cells = experiment: Annexin V/propidium iodide FACS apoptosis of stimulated CD45RO T cells; type: cell-based, human; conditions: rIL-2, anti-CD3 plus anti-CD28; 5 days; more pronounced than in CD45RA T cells
Description: as §1, §2

CD4+ T cells = experiment: Apoptosis by Nicoletti staining and transmission electron microscopy; type: cell-based, human; conditions: 5 days
Method: For FACS analysis, apoptotic cells were detected by staining with annexin V and propidium iodide using the Annexin V FITC Apoptosis Detection Kit I (PharMingen) (Atreya et al., Nat. Med. 6:583-588 (2000)). In brief, T cells were washed twice in PBS, and the pellet was resuspended in annexin V binding buffer (PharMingen) at a concentration of 10^6 cells per milliliter. Annexin V FITC and propidium iodide were added (5 ill of each per 10^5 cells). Samples were gently mixed and incubated for 15 minutes at room temperature in the dark before FACS analysis. To verify the results obtained with the annexin V/propidium iodide staining, analysis of T cells displaying DNA fragmentation was also determined by the Nicoletti technique, as described in (Nicoletti et al., J. Immunol. Methods 139:271-279 (1991)). 10^6 T cells were fixed in 70% ethanol, washed once in HBSS, resuspended in 1 ml of HBSS and 1 ml of phosphate citric acid buffer (0.2 mol/l Na2PO4 and 0.004 mol/l citric acid [pH 7.8]), and incubated at room temperature for 5 minutes. After centrifugation, cells were resuspended in 1 ml of HBSS containing 20 μg/ml propidium iodide and 10 U DNase-free RNase A and incubated at room temperature for 30 minutes. Finally, cells were analyzed on a FACScan flow cytometer. Because of the fragmentation of DNA, apoptotic cells appear as hypodiploid in the DNA histogram.

[1] = tested on: primary CD4+ T lymphocytes; experiment: T cell vitality and clonal expansion (trypan blue); type: cell-based, human
Method: Analysis of T cell vitality and clonal expansion: To induce T cell expansion, purified T lymphocytes were stimulated with coated antibodies to CD3 (0.04 μg/ml), soluble antibodies to CD28 (1 μg/ml), and recombinant IL-2 (40 U/ml) for the indicated periods of time. […] Cell viability was assessed by trypan blue (Sigma-Aldrich) staining at the beginning and at the end of the cell culture. The clonal expansion of T cells during cell culture was calculated by the ratio between cell numbers at the beginning and at the end of the cell culture.

caspase-9 = experiment: Fluorometric protease assay, caspase-9 activity in T lymphocytes; type: cell-based, human; conditions: CD3/CD28/rIL-2 stimulated T cells, 5 days
Method: (§3) Caspase-3 proteolytic activity was determined at day 5 by the caspase-3/CPP 32 fluorometric protease assay (Bio Source; Worcester, Mass., USA) according to the manufacturer's protocol. Caspase-8 and caspase-9 proteolytic activity were assessed in parallel by the corresponding fluorometric protease assays (Bio Source).

caspase-3 = experiment: Fluorometric protease assay, caspase-3 activity in T lymphocytes; type: cell-based, human; conditions: CD3/CD28/rIL-2 stimulated T cells, 5 days
Method: as §3

caspase-8 = experiment: Fluorometric protease assay, caspase-8 activity in T lymphocytes; type: cell-based, human; conditions: CD3/CD28/rIL-2 stimulated T cells, 5 days; on average
Method: as §3

Rac1 = Rac1 activation assay (GTP-bound Rac1, PAK pull-down); type: cell-based, human; conditions: primary T cells, 3 days
Method: (§4) Cell lysates were incubated with 10 μg/ml PAK-1 agarose (Rac assays) or 10 μg/mg Raf RBD agarose (Ras assay) for 60 minutes (Rac assays) or 30 minutes (Ras assays) at 4° C. Agarose beads were collected by centrifugation followed by denaturation, boiling of the samples, and SDS-PAGE analysis.

Ras = Ras activation assay (GTP-bound Ras, Raf RBD pull-down); type: cell-based, human; conditions: primary T cells
Method: as §4

bcl-xL mRNA = conditions: anti-CD3- plus anti-CD28-activated T lymphocytes
Method: The mRNA of T cells was extracted at the indicated time points using the Tri-reagent (Sigma-Aldrich) according to the manufacturer's protocol. In brief, the cell pellet was lysed in 1 ml of Tri-reagent before addition of 200 μl of chloroform (Sigma-Aldrich; Steinheim, Germany). Each sample was gently mixed before incubation (for 5 minutes at 20° C.) and centrifugation (12,000 g for 15 minutes at 4° C.). The aqueous phase was transferred to a fresh tube, and 0.5 ml of isopropanol (Sigma-Aldrich) was added. Samples were allowed to stand for 5 minutes at room temperature before centrifugation at 12,000 g (for 10 minutes at 4° C.). The supernatants were removed, and the RNA pellet was washed in 75% ethanol.
Gene arrays: mRNA from T lymphocytes was analyzed by the human apoptosis expression array (R&D) as follows. To generate radiolabeled cDNA, 4 μl of human apoptosis-specific primers (R&D) were added to 4 μg of the isolated mRNA, heated in a thermal cycler at 90° C. for 2 minutes, and incubated at 42° C. for 180 minutes in the presence of reverse transcriptase buffer (50 mM Tris-HCl, 8 mM MgCl2, 30 mM KCl, 1 mM DTT), 333 μM dATP, 333 μM dGTP, 333 μM dTTP, 1.67 μM dCTP, 20 U of RNasin, 20 μCi of ^32P-labeled dCTP (Amersham; Freiburg, Germany), and 50 U of AMV reverse transcriptase. […]

[2] = after oral administration and absorption; non-enzymatic attack by sulfhydryl-containing compounds; cited from earlier work

| Compound | induction of annexin V-positive, propidium iodide-negative naive CD45RA T cells (CD45RA T cells) | apoptosis of CD45RO memory T cells (CD45RO memory T cells) | number of apoptotic CD4+ T cells (CD4+ T cells) | clonal expansion of T cells ([1]; day 5) | caspase-9 activity (caspase-9) | caspase-3 activity (caspase-3) | induction of caspase-8 (caspase-8) | CD28 costimulation induced Rac1 activation (GTP-bound Rac1) (Rac1) | activation of Ras (GTP-bound Ras) (Ras) | clonal expansion of T cells ([1]; earlier time points than day 5) | bcl-xL mRNA expression (bcl-xL mRNA) | mRNA expression of other genes such as IL-2R, TACI, and GAPDH (bcl-xL mRNA) | conversion to 6-MP [2] |
| --- | --- | --- | --- | --- | --- | --- | --- | --- | --- | --- | --- | --- | --- |
| Sc1ncnc2nc[nH]c12 [6-MP, 6-mercaptopurine] | significant induction | induced apoptosis | marked increase | suppresses clonal expansion | marked induction | marked induction | less pronounced | strongly suppressed | fail to modulate | – | – | – | – |
| Cn1cnc([N+](=O)[O-])c1Sc1ncnc2nc[nH]c12 [azathioprine, Azathioprine] | significant induction | induced apoptosis | marked increase | reduction in the clonal expansion | – | – | – | strongly suppressed | virtually unaffected | no significant changes | strongly suppressed | not affected | approximately 90% |
